Reference: patent publication US11623919B2, “Heterocyclic P2X7 antagonists” (AXXAM S.P.A., priority 2017, dated 2023)

What was measured:
[1] = target: T1, P2X7 receptor (Mus musculus, UniProt Q9Z1M0); experiment: Screen Quest Fluo-8 No Wash Calcium Assay (Bz-ATP evoked Ca2+ influx, FLIPR); assay type: cell-based; conditions: mP2X7; HEK-293 cells stably transfected with P2X7 receptor, Bz-ATP at EC80, Fluo-8 NW; potency ranges A-D
T1 construct: mP2X7 (IC50; nM); other: mP2X7; HEK-293 cells stably transfected with P2X7 receptor, Bz-ATP at EC80, Fluo-8 NW; potency
T1 sequence (Q9Z1M0 1-595): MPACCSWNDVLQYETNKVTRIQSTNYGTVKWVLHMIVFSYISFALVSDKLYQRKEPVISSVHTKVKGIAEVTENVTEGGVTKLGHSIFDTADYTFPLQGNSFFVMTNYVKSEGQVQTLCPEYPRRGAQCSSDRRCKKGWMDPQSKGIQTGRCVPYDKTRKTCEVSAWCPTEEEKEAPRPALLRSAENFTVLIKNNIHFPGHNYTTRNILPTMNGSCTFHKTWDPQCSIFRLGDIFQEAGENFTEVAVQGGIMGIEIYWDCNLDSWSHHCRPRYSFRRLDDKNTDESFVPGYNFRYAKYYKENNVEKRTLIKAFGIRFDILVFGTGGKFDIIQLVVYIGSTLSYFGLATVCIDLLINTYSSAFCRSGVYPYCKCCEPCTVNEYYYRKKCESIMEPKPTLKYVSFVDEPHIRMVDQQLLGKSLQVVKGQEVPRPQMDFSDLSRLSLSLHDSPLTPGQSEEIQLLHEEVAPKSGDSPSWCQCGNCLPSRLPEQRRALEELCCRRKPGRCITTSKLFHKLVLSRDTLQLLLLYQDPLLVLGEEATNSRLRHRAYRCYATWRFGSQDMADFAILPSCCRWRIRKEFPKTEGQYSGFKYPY
Summary of the method: (§1)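 HEK-293 cells stably expressing P2X7 were loaded with Fluo-8 NW for 1 h at RT, then given compound, and 5 min later Bz-ATP at EC80. Fluorescence was read by FLIPR in low divalent cation buffer (0.3 mM Ca2+, 0 mM Mg2+). IC50 came from percent inhibition relative to reference antagonist A438079.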

[2] = target: T2, P2X7 receptor (Rattus norvegicus, UniProt Q64663); experiment: as above; assay type: cell-based; conditions: rP2X7; HEK-293 cells stably transfected with P2X7 receptor, Bz-ATP at EC80, Fluo-8 NW; potency ranges A-D
T2 construct: rP2X7 (IC50; nM); other: rP2X7; HEK-293 cells stably transfected with P2X7 receptor, Bz-ATP at EC80, Fluo-8 NW; potency
T2 sequence (Q64663 1-595): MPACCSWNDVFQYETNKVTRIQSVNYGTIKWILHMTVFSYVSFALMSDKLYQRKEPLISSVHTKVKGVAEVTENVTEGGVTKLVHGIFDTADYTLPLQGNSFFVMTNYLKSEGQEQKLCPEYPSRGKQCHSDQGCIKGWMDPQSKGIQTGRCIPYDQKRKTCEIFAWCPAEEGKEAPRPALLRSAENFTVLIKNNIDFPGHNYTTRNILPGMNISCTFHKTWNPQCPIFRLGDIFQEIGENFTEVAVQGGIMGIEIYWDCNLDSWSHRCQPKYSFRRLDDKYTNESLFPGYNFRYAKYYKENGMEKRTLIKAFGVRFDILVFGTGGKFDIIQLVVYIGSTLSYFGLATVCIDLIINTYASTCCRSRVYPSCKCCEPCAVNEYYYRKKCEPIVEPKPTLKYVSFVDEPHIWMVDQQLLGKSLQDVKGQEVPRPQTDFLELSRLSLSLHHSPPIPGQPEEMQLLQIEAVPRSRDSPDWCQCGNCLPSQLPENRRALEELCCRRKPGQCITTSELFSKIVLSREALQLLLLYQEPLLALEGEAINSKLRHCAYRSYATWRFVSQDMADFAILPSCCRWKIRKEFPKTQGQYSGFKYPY
Summary of the method: as §1

Compound	IC50 [1]	IC50 [2]
O=c1onc(Cc2c(F)cccc2Cl)n1CC1CCC(F)(F)C1 (racemic) [Example 128, 3-[(2-chloro-6-fluorophenyl)methyl]-4-[(3,3-difluorocyclopentyl)methyl]-4,5-dihydro-1,2,4-oxadiazol-5-one]	200 to 1000 nM	< 200 nM
O=c1onc(Cc2c(F)cccc2Cl)n1CC1CCC(F)(F)C1 (single isomer, unassigned) [Example 149, 3-(2-chloro-6-fluorobenzyl)-4-[(3,3-difluorocyclopentyl)methyl]-1,2,4-oxadiazol-5(4H)-one]	200 to 1000 nM	< 200 nM
O=c1onc(Cc2cccc(Cl)c2Cl)n1Cc1ccc(F)cc1 [Example 71, 3-[(2,3-dichlorophenyl)methyl]-4-[(4-fluorophenyl)methyl]-4,5-dihydro-1,2,4-oxadiazol-5-one]	1000 to 10000 nM	1000 to 10000 nM
O=c1onc(Cc2ccccc2Cl)n1Cc1ccc(F)cc1 [Example 76, 3-[(2-chlorophenyl)methyl]-4-[(4-fluorophenyl)methyl]-4,5-dihydro-1,2,4-oxadiazol-5-one]	1000 to 10000 nM	200 to 1000 nM
O=c1onc(Cc2c(F)cccc2Cl)n1CC1CCCCC1 [Example 82, 3-[(2-chloro-6-fluorophenyl)methyl]-4-(cyclohexylmethyl)-4,5-dihydro-1,2,4-oxadiazol-5-one]	< 200 nM	< 200 nM
O=c1onc(Cc2c(F)cccc2Cl)n1CC1CCC(F)(F)CC1 [Example 84, 3-[(2-chloro-6-fluorophenyl)methyl]-4-[(4,4-difluorocyclohexyl)methyl]-4,5-dihydro-1,2,4-oxadiazol-5-one]	< 200 nM	< 200 nM
O=c1onc(Cc2c(F)cccc2Cl)n1CC1CCCC1 [Example 85, 3-[(2-chloro-6-fluorophenyl)methyl]-4-(cyclopentylmethyl)-4,5-dihydro-1,2,4-oxadiazol-5-one]	200 to 1000 nM	< 200 nM
CC1(C)CCC(Cn2c(Cc3c(F)cccc3Cl)noc2=O)CC1 [Example 86, 3-[(2-chloro-6-fluorophenyl)methyl]-4-[(4,4-dimethylcyclohexyl)methyl]-4,5-dihydro-1,2,4-oxadiazol-5-one]	200 to 1000 nM	200 to 1000 nM
CC1CCCCC1Cn1c(Cc2c(F)cccc2Cl)noc1=O (stereo not shown) [Example 87, 3-[(2-chloro-6-fluorophenyl)methyl]-4-[(2-methylcyclohexyl)methyl]-4,5-dihydro-1,2,4-oxadiazol-5-one]	200 to 1000 nM	< 200 nM
O=c1onc(Cc2c(F)cccc2Cl)n1CC1CC2CCC1C2 (stereo not shown) [Example 88, 4-{bicyclo[2.2.1]heptan-2-ylmethyl}-3-[(2-chloro-6-fluorophenyl)methyl]-4,5-dihydro-1,2,4-oxadiazol-5-one]	200 to 1000 nM	< 200 nM
O=c1onc(Cc2c(F)cccc2Cl)n1CC12CCC(CC1)C2 [Example 91, 4-{bicyclo [2.2.1]heptan-1-ylmethyl}-3-[(2-chloro-6-fluorophenyl)methyl]-4,5-dihydro-1,2,4-oxadiazol-5-one]	200 to 1000 nM	< 200 nM
O=c1onc(Cc2c(F)cccc2Cl)n1CC1CCCCCC1 [Example 92, 3-[(2-chloro-6-fluorophenyl)methyl]-4-(cycloheptylmethyl)-4,5-dihydro-1,2,4-oxadiazol-5-one]	200 to 1000 nM	< 200 nM
O=c1onc(Cc2c(F)cccc2Cl)n1CC1CCCCO1 (stereo not shown) [Example 94, 3-[(2-chloro-6-fluorophenyl)methyl]-4-(oxan-2-ylmethyl)-4,5-dihydro-1,2,4-oxadiazol-5-one]	1000 to 10000 nM	200 to 1000 nM
O=c1onc(Cc2c(F)cccc2Cl)n1CC1(F)CCCCC1 [Example 96, 3-[(2-chloro-6-fluorophenyl)methyl]-4-[(1-fluorocyclohexyl)methyl]-4,5-dihydro-1,2,4-oxadiazol-5-one]	200 to 1000 nM	200 to 1000 nM
O=c1onc(Cc2c(F)cccc2Cl)n1CC1CCCCC1(F)F (stereo not shown) [Example 97, 3-[(2-chloro-6-fluorophenyl)methyl]-4-[(2,2-difluorocyclohexyl)methyl]-4,5-dihydro-1,2,4-oxadiazol-5-one]	200 to 1000 nM	< 200 nM

Continued, values first:

IC50 [1]	IC50 [2]	Compound
1000 to 10000 nM	200 to 1000 nM	O=c1onc(Cc2ccc(F)cc2)n1Cc1c(F)cccc1Cl [Example 1, 4-[(2-chloro-6-fluorophenyl)methyl]-3-[(4-fluorophenyl)methyl]-4,5-dihydro-1,2,4-oxadiazol-5-one]
200 to 1000 nM	200 to 1000 nM	Cc1cc(F)ccc1Cn1c(Cc2c(F)cccc2Cl)noc1=O [Example 25, 3-[(2-chloro-6-fluorophenyl)methyl]-4-[(4-fluoro-2-methylphenyl)methyl]-4,5-dihydro-1,2,4-oxadiazol-5-one]
200 to 1000 nM	< 200 nM	O=c1onc(Cc2c(F)cccc2Cl)n1Cc1cccc(F)c1 [Example 26, 3-[(2-chloro-6-fluorophenyl)methyl]-4-[(3-fluorophenyl)methyl]-4,5-dihydro-1,2,4-oxadiazol-5-one]
200 to 1000 nM	200 to 1000 nM	CC(c1ccc(F)cc1)n1c(Cc2c(F)cccc2Cl)noc1=O (stereo not shown) [Example 48, 3-[(2-chloro-6-fluorophenyl)methyl]-4-[1-(4-fluorophenyl)ethyl]-4,5-dihydro-1,2,4-oxadiazol-5-one]
200 to 1000 nM	200 to 1000 nM	O=c1onc(Cc2c(F)cccc2Cl)n1Cc1ccc(F)cc1 [Example 55, 3-[(2-chloro-6-fluorophenyl)methyl]-4-[(4-fluorophenyl)methyl]-4,5-dihydro-1,2,4-oxadiazol-5-one]
1000 to 10000 nM	1000 to 10000 nM	O=c1onc(Cc2c(F)cccc2Cl)n1Cc1ccc(F)cc1Cl [Example 60, 4-[(2-chloro-4-fluorophenyl)methyl]-3-[(2-chloro-6-fluorophenyl)methyl]-4,5-dihydro-1,2,4-oxadiazol-5-one]
1000 to 10000 nM	200 to 1000 nM	O=c1onc(Cc2c(F)cccc2Cl)n1Cc1ccc(F)cc1F [Example 61, 3-[(2-chloro-6-fluorophenyl)methyl]-4-[(2,4-difluorophenyl)methyl]-4,5-dihydro-1,2,4-oxadiazol-5-one]
1000 to 10000 nM	200 to 1000 nM	O=c1onc(Cc2c(F)cccc2Cl)n1Cc1ccc(Cl)cc1 [Example 65, 3-[(2-chloro-6-fluorophenyl)methyl]-4-[(4-chlorophenyl)methyl]-4,5-dihydro-1,2,4-oxadiazol-5-one]
1000 to 10000 nM	200 to 1000 nM	O=c1onc(Cc2c(F)cccc2Cl)n1Cc1ccc(C(F)(F)F)o1 [Example 66, 3-[(2-chloro-6-fluorophenyl)methyl]-4-{[5-(trifluoromethyl)furan-2-yl]methyl}-4,5-dihydro-1,2,4-oxadiazol-5-one]
1000 to 10000 nM	200 to 1000 nM	O=c1onc(Cc2ccc(F)cc2Cl)n1Cc1ccc(F)cc1 [Example 73, 3-[(2-chloro-4-fluorophenyl)methyl]-4-[(4-fluorophenyl)methyl]-4,5-dihydro-1,2,4-oxadiazol-5-one]
1000 to 10000 nM	200 to 1000 nM	O=c1onc(Cc2cccc(F)c2)n1Cc1c(F)cccc1Cl [Example 81, 4-[(2-chloro-6-fluorophenyl)methyl]-3-[(3-fluorophenyl)methyl]-4,5-dihydro-1,2,4-oxadiazol-5-one]
